Data published in patent US20090075935A1, “COMPOSITION COMPRISING AT LEAST ONE C-GLYCOSIDE DERIVATIVE AND AT LEAST ONE HYALURONIC ACID AND ITS COSMETIC USE” (L'OREAL, priority 2006, published 2009).
Each block holds one compound with its values, some of them ahead of it.

Tested on: keratinocyte transglutaminase (TGk)
Assay: Assaying of keratinocyte transglutaminase (TGk) activity in mitomycin-pretreated NHEKs in deficient medium (radiochemical assay)
Type: cell-based, human
Parameters: key to Significant variation relative to the control: NS = not significant
Settings: for % Activity relative to the control / Significant variation relative to the control: TGk activity, medium with mitomycin, depleted medium, 96 hours
From the text: For this, normal human epidermal keratinocytes (NHEKs), pretreated with mitomycin so as to prevent proliferation thereof, in a deficient medium made up of 40% of depleted SFM medium and 60% of Earle's balanced salt solution (EBSS) buffer were placed in culture. The metabolism of these cells having been thus slowed down, their ability to differentiate is then quantified by assaying, using a standard radiochemical assay, the keratinocyte transglutaminase activity (TGk) of the NHEKs pretreated with the active agents. […] Normal human keratinocytes were cultured at 37° C. and 5% CO2 for 24 h in complete SFM medium. The cell divisions were then blocked by treatment with mitomycin C (10 μg/ml) for 2 hours at 37° C. and 5% CO2. The cells were then incubated for 96 hours in deficient or nondeficient (control) medium containing or not containing various concentrations of the test or reference products. […] The treatments were carried out in triplicate (n=3). At the end of the incubation, the TGk membrane enzyme was extracted in the presence of Triton X-100 and the TGk activity was determined by measuring the covalent addition of tritiated putrescine, at a final concentration of 2 μCi/ml, to caseine (acceptor protein, 2 mg/ml final concentration). The caseine was precipitated by addition of trichloroacetic acid (TCA) and the precipitates were recovered on filters and a collector and then the dry filters were counted by liquid scintillation.

- % Activity relative to the control (0.06%): 128%
- Significant variation relative to the control (0.06%): NS
- effect on the TGk activity (tested at 0.06%): no significant effect
Compound: CC(O)C[C@@H]1OC[C@@H](O)[C@H](O)[C@H]1O (stereo partly drawn) [C-β-D-xylopyranoside-2-hydroxypropane]

Compound: [Ca+2].[Cl-].[Cl-] [CaCl2, Calcium chloride, reference compound]
- effect on the TGk activity of the keratinocytes (1.5 mM): clearly increased the TGk activity
- % Activity relative to the control (1.5 mM): 557%
- Significant variation relative to the control (1.5 mM): +457%

Compound: CC(O)CO (stereo not drawn) [1,2-propanediol]
- % Activity relative to the control (0.16%): 87%
- Significant variation relative to the control (0.16%): NS
- effect on the TGk activity (tested at 0.8%): did not modify the activity

- % Activity relative to the control (0.02%): 88%
- Significant variation relative to the control (0.02%): NS
- effect on the keratinocyte transglutaminase activity (tested alone at 0.02%): no effect
Compound: Hyaluronic acid
